Drawing on patent US7273863B1, “Benzophenones as inhibitors of reverse transcriptase” (SmithKline Beecham Corporation, priority 1999, dated 2007), this text covers IC50 for 3 compounds.

What all share (format): cell-based
The test system of one assay is NEV-R. The assay is described as follows: MT4 cell assay, antiviral HIV activity (propidium iodide). The conditions noted are these: Human immunodeficiency virus 1, MT4, read-out: IC50 (nM) Range.
Assay [1] relates to isogenic HIV-1 RT mutant virus G190A. Description: HeLa cell assay (HIV-LTR β-galactosidase reporter). The conditions noted are these: Human immunodeficiency virus 1, HeLa, read-out: IC50 (nM) Range. Here is the method: (§1) The HeLa cell assay was performed according to a modification of Kimpton J. and Emerman M., Detection of replication-competent and pseudotyped human immunodeficiency virus with a sensitive cell line on the basis of activation of an integrated β-galactosidase gene, J. Virol. 66:2232-2239 (1992), in which HIV-1 infection is detected by the activation of an HIV-LTR driven β-galactosidase reporter that is integrated into the genome of a CD4^+ HeLa cell line. Quantitation of β-galactosidase is achieved by measuring the activation of a chemiluminescent substrate (Tropix). The concentration of each compound required to inhibit 50% (IC50) of the HIV-1 induced β-galactosidase signal, relative to untreated controls, was determined for each isogenic, recombinant virus.
(§2) HeLa-CD4-LTR-β-gal cells were obtained from the NIH AIDS Research and Reference Reagent Program. Cells were propagated in DMEM containing 10% fetal bovine serum, 0.2 mg/ml geneticin and 0.1 mg/ml hygromycin B. Cells were routinely split by trypsinization when confluency reached 80% (approximately every 2 to 3 days).
(§3) DNA encoding the HIV-1 reverse transcriptase was subcloned from a M13 phage into a general shuttle vector, pBCSK+, as a ˜1.65 kbp EcoRI/HindIII ended DNA fragment. The HIV DNA insert of the resulting plasmid, pRT2, was completely sequenced on both strands prior to use in site directed mutagenesis experiments. Specific amino acid replacements were made using Stratagene Quick Change reagents and mutagenic oligonucleotides from Oligos. Following mutagenesis, the entire mutant RT coding sequence was verified by sequencing both DNA strands.
(§4) Mutant HIV-1 strains were isolated by a modified Recombinant Virus Assay (Kellam P. and Larder B., Recombinant virus assay: a rapid, phenotypic assay for assessment of drug susceptibility of human immunodeficiency virus type 1 isolates, Antimicrobial Agents and Chemotherapy, 38:23-30, 1994). 1×10^7 Jurkat T-cells (maintained in RPMI containing 10% fetal bovine serum, split 1:5 every 5 to 6 days) were co-transfected with EcoRI/HindIII digested mutant RT plasmid and Bst EII-digested HIV-1HXB2ΔRT DNA in the presence of DMRIE-C transfection reagent (Gibco) according to supplier's recommended protocol. Each mutant RT coding sequence was crossed into the RT-deleted HIV-1 viral DNA backbone by in vivo homologous recombination. Transfected cell cultures were expanded and monitored until syncitia formation and CPE were extensive. Virus was harvested by clear spin of the culture supernatants and frozen at −80 C as primary stock. Recombinant progeny virus was sequenced in the RT region to confirm the mutant genotype. Virus stocks were further expanded by infection of Jurkat cells, harvested and stored as frozen aliquots. Stocks were titered in HeLa MAGI cells for assay.
(§5) The HIV-1HXB2 mutants were titered in the HeLa MAGI assay system to determine the relative light units (RLU) per ml, a measure of infectivity relevant for this assay system. Virus stocks were diluted in a 2-fold series into DMEM containing 10% fetal bovine serum plus 20 ug/ml DEAE-dextran and assayed as described in the Experimental Protocol section, below.
(§6) 96-well microtiter plate(s) (Costar #3598) were seeded with 3×10^3 HeLa-CD4-LTR-β-gal in 100 μl DMEM containing 10% fetal bovine serum. Plates were placed in a 37° C., 5% CO2 humidified incubator overnight. The following day, mutant virus stocks were thawed in a room temperature water bath and diluted into DMEM containing 10% fetal bovine serum and 20 μg/ml DEAE-dextran to achieve an input of 1500 to 2000 RLU/ml. All media was removed with an 8 channel manifold aspirator and 35 μl (50 to 70 total RLUs) of diluted virus was added to each well for virus adsorption. Plates were placed in a 37° C., 5% CO2 humidified incubator for 1.5 to 2 hours.
(§7) Compound titration plates were prepared at 1.35× final concentration during the virus adsorption period. […]

Assay [2] concerns isogenic HIV-1 RT mutant virus K101E. Description: HeLa cell assay (HIV-LTR β-galactosidase reporter). The note with it: Human immunodeficiency virus 1, HeLa, read-out: IC50 (nM) Range. Here is the method: as §1, §2, §3, §4, §5, §6, §7
Assay [3] has as its system isogenic HIV-1 RT mutant virus K103N/G190A. The assay is described as follows: HeLa cell assay (HIV-LTR β-galactosidase reporter). The conditions noted are these: Human immunodeficiency virus 1, HeLa, read-out: IC50 (nM) Range. Here is the method: as §1, §2, §3, §4, §5, §6, §7
Assay [4] deals with isogenic HIV-1 RT mutant virus K103N/P225H. Description: HeLa cell assay (HIV-LTR β-galactosidase reporter). The note with it: Human immunodeficiency virus 1, HeLa, read-out: IC50 (nM) Range. Here is the method: as §1, §2, §3, §4, §5, §6, §7
The subject of assay [5] is isogenic HIV-1 RT mutant virus K103N/V108I. The assay is described as follows: HeLa cell assay (HIV-LTR β-galactosidase reporter). The note with it: Human immunodeficiency virus 1, HeLa, read-out: IC50 (nM) Range. Here is the method: as §1, §2, §3, §4, §5, §6, §7
Assay [6] relates to isogenic HIV-1 RT mutant virus K103N/Y181C. The assay is described as follows: HeLa cell assay (HIV-LTR β-galactosidase reporter). The conditions noted are these: Human immunodeficiency virus 1, HeLa, read-out: IC50 (nM) Range. Here is the method:
as §1, §2, §3, §4, §5, §6, §7

Assay [7] has as its system isogenic HIV-1 RT mutant virus K103N. Description: HeLa cell assay (HIV-LTR β-galactosidase reporter). The note with it: Human immunodeficiency virus 1, HeLa, read-out: IC50 (nM) Range. Here is the method:
as §1, §2, §3, §4, §5, §6, §7

Assay [8] deals with isogenic HIV-1 RT mutant virus L100I. The assay is described as follows: HeLa cell assay (HIV-LTR β-galactosidase reporter). The conditions noted are these: Human immunodeficiency virus 1, HeLa, read-out: IC50 (nM) Range. Here is the method:
as §1, §2, §3, §4, §5, §6, §7

Assay [9] deals with isogenic HIV-1 RT mutant virus P225H. Description: HeLa cell assay (HIV-LTR β-galactosidase reporter). The conditions noted are these: Human immunodeficiency virus 1, HeLa, read-out: IC50 (nM) Range. Here is the method: as §1, §2, §3, §4, §5, §6, §7
Assay [10] deals with isogenic HIV-1 RT mutant virus P236L. Description: HeLa cell assay (HIV-LTR β-galactosidase reporter). The note with it: Human immunodeficiency virus 1, HeLa, read-out: IC50 (nM) Range. Here is the method:
as §1, §2, §3, §4, §5, §6, §7

Assay [11] has as its system isogenic HIV-1 RT mutant virus V106A/Y181C. Description: HeLa cell assay (HIV-LTR β-galactosidase reporter). The note with it: Human immunodeficiency virus 1, HeLa, read-out: IC50 (nM) Range. Here is the method:
as §1, §2, §3, §4, §5, §6, §7

In assay [12] the test system is isogenic HIV-1 RT mutant virus V106A. The assay is described as follows: HeLa cell assay (HIV-LTR β-galactosidase reporter). The note with it: Human immunodeficiency virus 1, HeLa, read-out: IC50 (nM) Range. Here is the method:
as §1, §2, §3, §4, §5, §6, §7

The subject of assay [13] is isogenic HIV-1 RT mutant virus V106I/Y181C. The assay is described as follows: HeLa cell assay (HIV-LTR β-galactosidase reporter). The note with it: Human immunodeficiency virus 1, HeLa, read-out: IC50 (nM) Range. Here is the method: as §1, §2, §3, §4, §5, §6, §7
Assay [14] relates to isogenic HIV-1 RT mutant virus V106I. The assay is described as follows: HeLa cell assay (HIV-LTR β-galactosidase reporter). The note with it: Human immunodeficiency virus 1, HeLa, read-out: IC50 (nM) Range. Here is the method: as §1, §2, §3, §4, §5, §6, §7
In assay [15] the test system is isogenic HIV-1 RT mutant virus V108I/Y181C. The assay is described as follows: HeLa cell assay (HIV-LTR β-galactosidase reporter). The note with it: Human immunodeficiency virus 1, HeLa, read-out: IC50 (nM) Range. Here is the method: as §1, §2, §3, §4, §5, §6, §7
For assay [16], the system named is isogenic HIV-1 RT mutant virus V108I. The assay is described as follows: HeLa cell assay (HIV-LTR β-galactosidase reporter). The conditions noted are these: Human immunodeficiency virus 1, HeLa, read-out: IC50 (nM) Range. Here is the method:
as §1, §2, §3, §4, §5, §6, §7

In assay [17] the test system is isogenic HIV-1 RT mutant virus Y181C. Description: HeLa cell assay (HIV-LTR β-galactosidase reporter). The conditions noted are these: Human immunodeficiency virus 1, HeLa, read-out: IC50 (nM) Range. Here is the method:
as §1, §2, §3, §4, §5, §6, §7

The test system of assay [18] is isogenic HIV-1 RT mutant virus Y188C. Description: HeLa cell assay (HIV-LTR β-galactosidase reporter). The note with it: Human immunodeficiency virus 1, HeLa, read-out: IC50 (nM) Range. Here is the method: as §1, §2, §3, §4, §5, §6, §7
Assay [19] relates to isogenic HIV-1 RT mutant virus E138K. Description: HeLa cell assay (HIV-LTR β-galactosidase reporter). The note with it: Human immunodeficiency virus 1, HeLa, read-out: IC50 (nM) Range. Here is the method:
as §1, §2, §3, §4, §5, §6, §7

Assay [20] has as its system isogenic HIV-1 RT mutant virus G190E. The assay is described as follows: HeLa cell assay (HIV-LTR β-galactosidase reporter). The conditions noted are these: Human immunodeficiency virus 1, HeLa, read-out: IC50 (nM) Range. Here is the method:
as §1, §2, §3, §4, §5, §6, §7

The subject of assay [21] is isogenic HIV-1 RT mutant virus K103N/L1001. Description: HeLa cell assay (HIV-LTR β-galactosidase reporter). The conditions noted are these: Human immunodeficiency virus 1, HeLa, read-out: IC50 (nM) Range. Here is the method:
as §1, §2, §3, §4, §5, §6, §7

What is called IC50 is the concentration at which inhibition is half-maximal. Take `Cc1cc2cn[nH]c2cc1NC(=O)COc1ccc(Cl)cc1C(=O)c1cccc(C#N)c1` [Compound 453]: the IC50 was less than 10 nM in the assay on NEV-R; less than 10 nM in assay [1]; less than 10 nM in assay [2]; 11 to 100 nM in [3]; less than 10 nM in [4]; less than 10 nM in assay [5]. For the same compound, the IC50 in assay [6] was less than 10 nM; in assay [7], less than 10 nM; in assay [8] it was less than 10 nM; in assay [9], less than 10 nM; in assay [10] it was 11 to 100 nM; in assay [11], 11 to 100 nM. For the same compound, the IC50 was 101 to 1000 nM in assay [12]; 11 to 100 nM in assay [13]; less than 10 nM in [14]; less than 10 nM in assay [15]; 101 to 1000 nM in assay [16]; less than 10 nM in [17]. The IC50 in [18] is less than 10 nM.

`Cc1cc(S(N)(=O)=O)ccc1NC(=O)COc1ccc(Cl)cc1C(=O)c1cccc(C#N)c1` [Compound 448]: the IC50 is less than 10 nM with NEV-R; less than 10 nM in assay [19]; less than 10 nM in assay [1]; less than 10 nM in [20]; less than 10 nM in assay [2]; 11 to 100 nM in [3]. In addition, the IC50 in [21] was less than 10 nM; in [4] it was less than 10 nM; in [5] it was less than 10 nM; in assay [6], 11 to 100 nM; in assay [7], less than 10 nM; in assay [8], less than 10 nM. Besides, the 50% inhibitory concentration (IC50) is less than 10 nM in assay [9]; 11 to 100 nM in [10]; 11 to 100 nM in [11]; 11 to 100 nM in assay [12]; 11 to 100 nM in assay [13]; less than 10 nM in assay [14]. Besides, the half-maximal inhibitory concentration (IC50) in [15], in assay [16], in [17] and in [18] was less than 10 nM throughout.

For `Cc1cc(OCCCS(N)(=O)=O)ccc1NC(=O)COc1ccc(Cl)cc1C(=O)c1cc(F)cc(C(F)(F)F)c1` [Compound 257], the IC50 with NEV-R is less than 10 nM; in assay [19], less than 10 nM; in [1], less than 10 nM; in assay [20] it was less than 10 nM; in assay [2], less than 10 nM; in assay [3] it was 11 to 100 nM. Further, the half-inhibitory concentration (IC50) in [21], in assay [4], in assay [5], in assay [6], in assay [7] and in [8] was less than 10 nM each time. Also, the concentration for half-maximal inhibition (IC50) is less than 10 nM in assay [9]; less than 10 nM in assay [10]; 11 to 100 nM in [11]; 11 to 100 nM in assay [12]; 11 to 100 nM in assay [13]; less than 10 nM in assay [14]. The IC50 in assay [15], in [16], in assay [17] and in assay [18] was less than 10 nM in each case.
